Reference: PubChem BioAssay AID2060889 (Molecular Pharmacology Branch, DTP, NCI, 2025)
pIC50: −log10 of the molar value.

Test system: LG0567-F671-PDC complex spheroids viability
Assay: Anticancer human tumor LG0567-F671-PDC patient-derived lung adenocarcinoma cell line growth inhibition [RAS]
Conditions: for pIC50: curve of first compound; for viability, T/C: stronger effect = lower value
In short: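 Tumour cells grown as complex spheroids with HUVEC endothelial cells and mesenchymal stem cells, treated with RAS pathway inhibitor combinations. Each agent spans half-log steps from near clinical Cmax, or 10 microM where Cmax is unknown.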

[1] = second compound 0.000949 µM, first compound 0.0316 µM
[2] = second compound 0.000949 µM, first compound 0.1 µM
[3] = second compound 0.000949 µM, first compound 0.316 µM
[4] = second compound 0.000949 µM, first compound 1 µM
[5] = second compound 0.000949 µM, first compound 3.16 µM
[6] = second compound 0.000949 µM, first compound 10 µM
[7] = second compound 0.003 µM, first compound 0.0316 µM
[8] = second compound 0.003 µM, first compound 0.1 µM
[9] = second compound 0.003 µM, first compound 0.316 µM
[10] = second compound 0.003 µM, first compound 1 µM
[11] = second compound 0.003 µM, first compound 3.16 µM
[12] = second compound 0.003 µM, first compound 10 µM
[13] = second compound 0.00949 µM, first compound 0.0316 µM
[14] = second compound 0.00949 µM, first compound 0.1 µM
[15] = second compound 0.00949 µM, first compound 0.316 µM
[16] = second compound 0.00949 µM, first compound 1 µM
[17] = second compound 0.00949 µM, first compound 3.16 µM
[18] = second compound 0.00949 µM, first compound 10 µM
[19] = second compound 0.03 µM, first compound 0.0316 µM
[20] = second compound 0.03 µM, first compound 0.1 µM
[21] = second compound 0.03 µM, first compound 0.316 µM
[22] = second compound 0.03 µM, first compound 1 µM
[23] = second compound 0.03 µM, first compound 3.16 µM
[24] = second compound 0.03 µM, first compound 10 µM
[25] = second compound 0.0949 µM, first compound 0.0316 µM
[26] = second compound 0.0949 µM, first compound 0.1 µM
[27] = second compound 0.0949 µM, first compound 0.316 µM
[28] = second compound 0.0949 µM, first compound 1 µM
[29] = second compound 0.0949 µM, first compound 3.16 µM
[30] = second compound 0.0949 µM, first compound 10 µM
[31] = second compound 0.3 µM, first compound 0.0316 µM
[32] = second compound 0.3 µM, first compound 0.1 µM
[33] = second compound 0.3 µM, first compound 0.316 µM
[34] = second compound 0.3 µM, first compound 1 µM
[35] = second compound 0.3 µM, first compound 3.16 µM
[36] = second compound 0.3 µM, first compound 10 µM
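Also: spheroids exposed to compound for seven days before readout.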
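For pIC50 in this document: luminescence signal used as a proxy for viable cells.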

How did the pIC50 (second compound 0.000949 µM) turn out when C[C@@H](NC(=O)c1ncnc(N)c1Cl)c1ncc(C(=O)Nc2cc(C(F)(F)F)c(Cl)cn2)s1 + CCn1c(-c2cccnc2C(C)OC)c2c3cc(ccc31)N1CCOC(CC(NC(=O)C(C(C)C)N(C)C(=O)C3(F)CCN(C(=O)C#CC(C)(C)N(C)C)CC3)C(=O)N3CCCC(N3)C(=O)OCC(C)(C)C2)C1 was run?
The pIC50 was over 7.50.

And the pIC50 (second compound 0.003 µM)?
The pIC50 was over 7.50.

What about the pIC50 (second compound 0.00949 µM) of the same compound?
Its pIC50 is over 7.50.

And the pIC50 (second compound 0.03 µM)?
The pIC50 was over 7.50.

And the pIC50 (second compound 0.0949 µM)?
The pIC50 was over 7.50.

And the pIC50 (second compound 0.3 µM)?
Its pIC50 is over 7.50.

What about the viability, T/C [1] of the same compound?
The viability, T/C was 17.3%.

And the viability, T/C [2]?
The viability, T/C was 19.9%.

What about the viability, T/C [3] of the same compound?
Its viability, T/C is 20.6%.

What about the viability, T/C [4] of the same compound?
Its viability, T/C is 24.5%.

And the viability, T/C [5]?
The viability, T/C was 23.5%.

And the viability, T/C [6]?
Its viability, T/C is 23.9%.

And the viability, T/C [7]?
The viability, T/C was 17.1%.

What about the viability, T/C [8] of the same compound?
The viability, T/C was 17.9%.

What about the viability, T/C [9] of the same compound?
Its viability, T/C is 21.1%.

What about the viability, T/C [10] of the same compound?
Its viability, T/C is 21%.

And the viability, T/C [11]?
Its viability, T/C is 25.6%.

What about the viability, T/C [12] of the same compound?
The viability, T/C was 23.6%.

And the viability, T/C [13]?
The viability, T/C was 20.9%.

What about the viability, T/C [14] of the same compound?
Its viability, T/C is 18.6%.

What about the viability, T/C [15] of the same compound?
The viability, T/C was 19.2%.

What about the viability, T/C [16] of the same compound?
The viability, T/C was 22.4%.

And the viability, T/C [17]?
The viability, T/C was 22.4%.

And the viability, T/C [18]?
Its viability, T/C is 24%.

And the viability, T/C [19]?
Its viability, T/C is 16.7%.

What about the viability, T/C [20] of the same compound?
The viability, T/C was 17.1%.

What about the viability, T/C [21] of the same compound?
Its viability, T/C is 22.9%.

And the viability, T/C [22]?
Its viability, T/C is 20.3%.

And the viability, T/C [23]?
Its viability, T/C is 21.6%.

And the viability, T/C [24]?
Its viability, T/C is 22.2%.

And the viability, T/C [25]?
The viability, T/C was 14.4%.

What about the viability, T/C [26] of the same compound?
Its viability, T/C is 15.5%.

What about the viability, T/C [27] of the same compound?
Its viability, T/C is 17.5%.

What about the viability, T/C [28] of the same compound?
The viability, T/C was 19.6%.

And the viability, T/C [29]?
The viability, T/C was 19.8%.

And the viability, T/C [30]?
The viability, T/C was 21.8%.

What about the viability, T/C [31] of the same compound?
The viability, T/C was 13%.

What about the viability, T/C [32] of the same compound?
The viability, T/C was 14.8%.

What about the viability, T/C [33] of the same compound?
The viability, T/C was 14.2%.

And the viability, T/C [34]?
The viability, T/C was 17.2%.

What about the viability, T/C [35] of the same compound?
Its viability, T/C is 19.5%.

And the viability, T/C [36]?
The viability, T/C was 19.1%.

What does the source list for Cc1nc(N2CCC3(CC2)COC(C)C3N)c(CO)nc1Sc1ccnc(N)c1Cl (centres undefined) + CCn1c(-c2cccnc2C(C)OC)c2c3cc(ccc31)N1CCOC(CC(NC(=O)C(C(C)C)N(C)C(=O)C3(F)CCN(C(=O)C#CC(C)(C)N(C)C)CC3)C(=O)N3CCCC(N3)C(=O)OCC(C)(C)C2)C1?
pIC50 (second compound 0.000949 µM): > 7.50; pIC50 (second compound 0.003 µM): > 7.50; pIC50 (second compound 0.00949 µM): > 7.50; pIC50 (second compound 0.03 µM): > 7.50; pIC50 (second compound 0.0949 µM): > 7.50; pIC50 (second compound 0.3 µM): > 7.50; viability, T/C [1]: 10.8%; viability, T/C [2]: 7.91%; viability, T/C [3]: 6.47%; viability, T/C [4]: 4.21%; viability, T/C [5]: 2.97%; viability, T/C [6]: 3.86%; viability, T/C [7]: 12%; viability, T/C [8]: 8.89%; viability, T/C [9]: 6.21%; viability, T/C [10]: 4.14%; viability, T/C [11]: 3.41%; viability, T/C [12]: 2.94%; viability, T/C [13]: 10.7%; viability, T/C [14]: 8.42%; viability, T/C [15]: 5.46%; viability, T/C [16]: 3.45%; viability, T/C [17]: 2.86%; viability, T/C [18]: 3.85%; viability, T/C [19]: 10.3%; viability, T/C [20]: 6.81%; viability, T/C [21]: 6.16%; viability, T/C [22]: 3.36%; viability, T/C [23]: 2.76%; viability, T/C [24]: 2.27%; viability, T/C [25]: 6.53%; viability, T/C [26]: 6.31%; viability, T/C [27]: 5%; viability, T/C [28]: 3.1%; viability, T/C [29]: 2.61%; viability, T/C [30]: 3.31%; viability, T/C [31]: 6.4%; viability, T/C [32]: 4.69%; viability, T/C [33]: 3.02%; viability, T/C [34]: 3.78%; viability, T/C [35]: 2.19%; viability, T/C [36]: 3.11%
